In ChEMBL document CHEMBL3885861, “Open TG-GATES”:

Organism: Rattus norvegicus
Test: Open TG-GATES - Regimen: Single
Type: toxicity, organism-based, Sprague-Dawley
Set-up: regimen Single, gender Male, age 6 weeks
Conditions: in vivo, po, 100 mg/kg, route gavage, dose level Middle; for APTT / Bas / Eos / Fbg / Hb / Ht / Lym / MCH / MCHC / MCV / Mono / Neu / PT / Plat / RBC / Ret / WBC: tissue Blood; for KIDNEY_L / KIDNEY_R / KIDNEY_TOTAL: tissue Kidney; for LIVER: tissue Liver; for A/G / ALP / ALT / AST / BUN / CRE / Ca / Cl / DBIL / GLC / IP / K / LDH / Na / PL / RALB / TBIL / TC / TG / TP / gamma-GTP: tissue Plasma

Cc1cccc(Nc2ccccc2C(=O)O)c1C [MEFENAMIC ACID]
TERMINAL_BW (3 h): 218.5 g
APTT (3 h): 19.2 s
Bas (3 h): 0%
Eos (3 h): 0.8%
Fbg (3 h): 218.2 mg/dL
Hb (3 h): 13.3 g/dL
Ht (3 h): 37.3%
Lym (3 h): 80%
MCH (3 h): 21.8 pg
MCHC (3 h): 35.5%
MCV (3 h): 61.4 fL
Mono (3 h): 2.2%
Neu (3 h): 15%
PT (3 h): 12.2 s
Plat (3 h): 114.3 x10_4/uL
RBC (3 h): 608.6 x10_4/ul
Ret (3 h): 7.4%
WBC (3 h): 104.3 x10_2/uL
KIDNEY_L (3 h): 1 g
KIDNEY_R (3 h): 1 g
KIDNEY_TOTAL (3 h): 1.9 g
LIVER (3 h): 9.9 g
A/G (3 h): 1.6
ALP (3 h): 1058 IU/L
ALT (3 h): 37.6 IU/L
AST (3 h): 67.8 IU/L
BUN (3 h): 12.4 mg/dL
CRE (3 h): 0.4 mg/dL
Ca (3 h): 10.7 mg/dL
Cl (3 h): 103.4 meq/L
DBIL (3 h): 0.074 mg/dL
GLC (3 h): 196.8 mg/dL
IP (3 h): 8.6 mg/dL
K (3 h): 4.1 meq/L
LDH (3 h): 184 IU/L
Na (3 h): 140.8 meq/L
PL (3 h): 141.4 mg/dL
RALB (3 h): 3.4 g/dL
TBIL (3 h): 0.1 mg/dL
TC (3 h): 78.6 mg/dL
TG (3 h): 43.4 mg/dL
TP (3 h): 5.5 g/dL
gamma-GTP (3 h): 1.6 IU/L
TERMINAL_BW (6 h): 215.4 g
APTT (6 h): 18.2 s
Bas (6 h): 0%
Eos (6 h): 1%
Fbg (6 h): 225.6 mg/dL
Hb (6 h): 13 g/dL
Ht (6 h): 37.2%
Lym (6 h): 76.2%
MCH (6 h): 21.7 pg
MCHC (6 h): 35.1%
MCV (6 h): 61.8 fL
Mono (6 h): 2.6%
Neu (6 h): 18.6%
PT (6 h): 12.6 s
Plat (6 h): 108.7 x10_4/uL
RBC (6 h): 602.4 x10_4/ul
Ret (6 h): 7.6%
WBC (6 h): 76.8 x10_2/uL
KIDNEY_L (6 h): 1 g
KIDNEY_R (6 h): 1 g
KIDNEY_TOTAL (6 h): 2 g
LIVER (6 h): 9.6 g
A/G (6 h): 1.6
ALP (6 h): 782.4 IU/L
ALT (6 h): 36.8 IU/L
AST (6 h): 64.2 IU/L
BUN (6 h): 11 mg/dL
CRE (6 h): 0.3 mg/dL
Ca (6 h): 10.5 mg/dL
Cl (6 h): 103 meq/L
DBIL (6 h): 0.064 mg/dL
GLC (6 h): 185.4 mg/dL
IP (6 h): 9 mg/dL
K (6 h): 4.1 meq/L
LDH (6 h): 160.4 IU/L
Na (6 h): 139.8 meq/L
PL (6 h): 139.6 mg/dL
RALB (6 h): 3.3 g/dL
TBIL (6 h): 0.1 mg/dL
TC (6 h): 77.6 mg/dL
TG (6 h): 48.4 mg/dL
TP (6 h): 5.4 g/dL
gamma-GTP (6 h): 1.4 IU/L
TERMINAL_BW (9 h): 211.6 g
APTT (9 h): 17.9 s
Bas (9 h): 0%
Eos (9 h): 1%
Fbg (9 h): 216.4 mg/dL
Hb (9 h): 13.6 g/dL
Ht (9 h): 38.1%
Lym (9 h): 77.2%
MCH (9 h): 22.3 pg
MCHC (9 h): 35.8%
MCV (9 h): 62.4 fL
Mono (9 h): 2.2%
Neu (9 h): 18.2%
PT (9 h): 12.7 s
Plat (9 h): 112.5 x10_4/uL
RBC (9 h): 611 x10_4/ul
Ret (9 h): 7.2%
WBC (9 h): 77.1 x10_2/uL
KIDNEY_L (9 h): 0.9 g
KIDNEY_R (9 h): 0.9 g
KIDNEY_TOTAL (9 h): 1.8 g
LIVER (9 h): 8.6 g
A/G (9 h): 1.6
ALP (9 h): 955.2 IU/L
ALT (9 h): 30.8 IU/L
AST (9 h): 61.6 IU/L
BUN (9 h): 12.2 mg/dL
CRE (9 h): 0.4 mg/dL
Ca (9 h): 10.4 mg/dL
Cl (9 h): 103 meq/L
DBIL (9 h): 0.06 mg/dL
GLC (9 h): 196.2 mg/dL
IP (9 h): 9.4 mg/dL
K (9 h): 3.7 meq/L
LDH (9 h): 184.6 IU/L
Na (9 h): 140.2 meq/L
PL (9 h): 127.8 mg/dL
RALB (9 h): 3.4 g/dL
TBIL (9 h): 0.1 mg/dL
TC (9 h): 72.4 mg/dL
TG (9 h): 29.6 mg/dL
TP (9 h): 5.5 g/dL
gamma-GTP (9 h): 1 IU/L
TERMINAL_BW (24 h): 227 g
APTT (24 h): 17.3 s
Bas (24 h): 0%
Eos (24 h): 1%
Fbg (24 h): 209.2 mg/dL
Hb (24 h): 13 g/dL
Ht (24 h): 37.3%
Lym (24 h): 72.6%
MCH (24 h): 22.1 pg
MCHC (24 h): 35%
MCV (24 h): 63.2 fL
Mono (24 h): 2.8%
Neu (24 h): 21.2%
PT (24 h): 12.1 s
Plat (24 h): 119.7 x10_4/uL
RBC (24 h): 590.4 x10_4/ul
Ret (24 h): 7%
WBC (24 h): 99.5 x10_2/uL
KIDNEY_L (24 h): 1 g
KIDNEY_R (24 h): 1.1 g
KIDNEY_TOTAL (24 h): 2.1 g
LIVER (24 h): 11 g
A/G (24 h): 1.6
ALP (24 h): 883 IU/L
ALT (24 h): 39.2 IU/L
AST (24 h): 67.2 IU/L
BUN (24 h): 14.2 mg/dL
CRE (24 h): 0.4 mg/dL
Ca (24 h): 10.9 mg/dL
Cl (24 h): 102.8 meq/L
DBIL (24 h): 0.092 mg/dL
GLC (24 h): 190.6 mg/dL
IP (24 h): 7.5 mg/dL
K (24 h): 4.3 meq/L
LDH (24 h): 196.4 IU/L
Na (24 h): 139.8 meq/L
PL (24 h): 151.8 mg/dL
RALB (24 h): 3.5 g/dL
TBIL (24 h): 0.1 mg/dL
TC (24 h): 81 mg/dL
TG (24 h): 88.8 mg/dL
TP (24 h): 5.6 g/dL
gamma-GTP (24 h): 1.4 IU/L
